Source: PMC9481570, “A small molecule antagonist of SMN disrupts the interaction between SMN and RNAP II” (Nature Communications, 2022)
Like-named read-outs stand apart in the source and are kept apart here.

Key:
[1] = target: T1, SMN_W102Y (Homo sapiens, UniProt Q16637, W102Y); test: ITC binding to SMN Tudor mutant W102Y; conditions: Fig. 3d
T1 construct: SMN (aa 82–147); His (N, cleaved yes); made in house; host or cells: E. coli BL21 (DE3) Codon plus RIL
Description: (§1) The coding DNA fragments of following Tudor domains were cloned into pET28-MHL vector: SMN (aa 82–147), UHRF1 (aa 126–285), SMNDC1 (aa 53–130), TDRD3 (aa 554–611), SND1 (aa 650–910), TDRD2 (aa 327–420), FXR1 (aa 2–132), PHF1 (aa 28–87), SGF29 (aa 115–293), JMJD2A (aa 897–1101), 53BP1 (aa 1483–1606), SETDB1 (aa 190–410), LBR (aa 1–67), ZGPAT (aa 120–271). The coding regions of chromodomain of CBX7 (aa 8–62), PWWP domain of DNMT3A (aa 275–417), WD40 repeats of WDR5 (aa 24–334) and CW domain of ZCWPW2 (aa 21–78) were also subcloned into pET28-MHL vector to generate N-terminally His-tagged fusion protein. The MBT repeats of L3MBTL1 (aa 200–522) and L3MBTL2 (aa 170–625) were subcloned into pET28GST-LIC vector to generate N-terminally GST-His-tagged fusion protein. All the plasmids were generated by ligase independent cloning (Vazyme Biotech, C112 or ABclonal Technology, RK21020). […] The molecular weight of all protein samples was measured by mass spectrometry.
(§2) For the ITC measurement, the concentrated proteins were diluted into 20 mM Tris-HCl, pH 7.5, 150 mM NaCl (ITC buffer); the lyophilized compounds were dissolved in the same buffer, and the pH value was adjusted by adding 2 M NaOH or 2 M HCl. […] Compound concentrations were calculated from the mass and the volume of the solvent. […]

[2] = target: T2, SND1 (Homo sapiens, UniProt Q7KZF4); test: ITC binding to SND1
T2 construct: SND1 (aa 650–910); His (N, cleaved yes); made in house; host or cells: E. coli BL21 (DE3) Codon plus RIL
T2 sequence (Q7KZF4 650-910): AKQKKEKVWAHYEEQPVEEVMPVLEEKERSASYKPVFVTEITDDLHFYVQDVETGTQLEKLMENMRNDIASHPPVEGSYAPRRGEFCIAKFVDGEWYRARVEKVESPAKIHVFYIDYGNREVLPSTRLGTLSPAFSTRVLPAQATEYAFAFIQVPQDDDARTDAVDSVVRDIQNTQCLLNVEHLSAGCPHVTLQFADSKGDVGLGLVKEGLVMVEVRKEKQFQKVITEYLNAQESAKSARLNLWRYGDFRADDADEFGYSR
Description: The coding DNA fragments of following Tudor domains were cloned into pET28-MHL vector: SMN (aa 82–147), UHRF1 (aa 126–285), SMNDC1 (aa 53–130), TDRD3 (aa 554–611), SND1 (aa 650–910), TDRD2 (aa 327–420), FXR1 (aa 2–132), PHF1 (aa 28–87), SGF29 (aa 115–293), JMJD2A (aa 897–1101), 53BP1 (aa 1483–1606), SETDB1 (aa 190–410), LBR (aa 1–67), ZGPAT (aa 120–271). The coding regions of chromodomain of CBX7 (aa 8–62), PWWP domain of DNMT3A (aa 275–417), WD40 repeats of WDR5 (aa 24–334) and CW domain of ZCWPW2 (aa 21–78) were also subcloned into pET28-MHL vector to generate N-terminally His-tagged fusion protein. The MBT repeats of L3MBTL1 (aa 200–522) and L3MBTL2 (aa 170–625) were subcloned into pET28GST-LIC vector to generate N-terminally GST-His-tagged fusion protein. All the plasmids were generated by ligase independent cloning (Vazyme Biotech, C112 or ABclonal Technology, RK21020). […] The proteins were further purified by Superdex75 or Superdex200 gel-filtration column (GE Healthcare) in a buffer containing 20 mM Tris-HCl, pH 7.5, 150 mM NaCl and 1 mM DTT. For crystallization experiments, purified proteins were concentrated to 18 mg/mL for SMN, 23 mg/mL for UHRF1 and 10 mg/mL for TDRD3 in the gel-filtration buffer. […] The molecular weight of all protein samples was measured by mass spectrometry.
For the ITC measurement, the concentrated proteins were diluted into 20 mM Tris-HCl, pH 7.5, 150 mM NaCl (ITC buffer); the lyophilized compounds were dissolved in the same buffer, and the pH value was adjusted by adding 2 M NaOH or 2 M HCl. […] Compound concentrations were calculated from the mass and the volume of the solvent. […] The protein with a concentration of 50–100 μM was placed in the cell chamber, and the compounds with a concentration of 0.5–2 mM in syringe was injected in 25, 20, or 20 successive injections with a spacing of 180, 150, or 120 s for VP-ITC, iTC-200, or Nano-ITC, respectively, as previously described[30]–[32]. iTC-200 or Nano-ITC data were consistent with those from the VP-ITC instrument, based on ITC results of SMN-compound 1 detected by using all the instruments. […]

[3] = target: T3, JMJD2A (Homo sapiens, UniProt O75164); test: ITC binding to JMJD2A; conditions: Fig. 1c
T3 construct: JMJD2A (aa 897–1101); His (N, cleaved yes); made in house; host or cells: E. coli BL21 (DE3) Codon plus RIL
T3 sequence (O75164 897-1064): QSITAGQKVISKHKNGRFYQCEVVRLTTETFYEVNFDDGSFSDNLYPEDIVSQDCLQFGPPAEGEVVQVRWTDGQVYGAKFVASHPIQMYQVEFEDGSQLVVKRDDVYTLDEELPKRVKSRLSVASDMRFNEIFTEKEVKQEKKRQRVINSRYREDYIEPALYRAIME
Description: as §1, §2

T1 sequence (Q16637 82-147 W102Y): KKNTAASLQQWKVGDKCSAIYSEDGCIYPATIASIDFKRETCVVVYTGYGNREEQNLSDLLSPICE

## Cn1c2c(c(=N)c3c1CCC3)CCC2 [Compound 1, 4-methyl-2,3,4,5,6,7-hexahydrodicyclopenta[b,e]pyridin-8(1H)-imine]
[1]
  Kd: 8.3 ± 1.1 µM
[2]; ITC, Fig. 1c, read-out: Kd (SND1)
  Kd: > 100 µM
[2]; Supplementary Fig. 11c, VP-ITC, read-out: Kd, ITC binding curve, SND1
  Kd: 244 ± 51 µM
[2]; Supplementary Fig. 2d
  ITC binding curve, SND1 (in words): Weak binding
[3]
  Kd: > 244 µM
